Results as given in ChEMBL document CHEMBL1201862, “PubChem BioAssay data set” (2004).
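1) Cells in 96-well plates. 2) Compound, 48 h, 5 concentrations. 3) Linear interpolation between surrounding doses. 4) Unreached endpoint = highest concentration. Here, GI50 denotes the concentration required for 50% inhibition of growth.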 Activity calls are given as the source filed them. Rule as the data show it: active = GI50 up to about 1.1 µM and inactive = higher.

Legend:
Experiment in all cases: NCI anticancer screen, dose series, 48 h
TK-10 = system: TK-10
NCI-H522 = system: NCI-H522
HOP-62 = system: HOP-62
NCI-H23 = system: NCI-H23
SNB-19 = system: SNB-19
M14 = system: M14
EKVX = system: EKVX
UACC-62 = system: UACC-62
NCI-H460 = system: NCI-H460
HOP-92 = system: HOP-92
UO-31 = system: UO-31
SF-268 = system: SF-268
MDA-MB-435 = system: MDA-MB-435
COLO 205 = system: COLO 205
MDA-N = system: MDA-N
OVCAR-3 = system: OVCAR-3
IGROV-1 = system: IGROV-1
SK-MEL-5 = system: SK-MEL-5
HT-29 = system: HT-29
PC-3 = system: PC-3

Row | Compound | GI50 (TK-10) | GI50 (NCI-H522) | GI50 (HOP-62) | GI50 (NCI-H23) | GI50 (SNB-19) | GI50 (M14) | GI50 (EKVX) | GI50 (UACC-62) | GI50 (NCI-H460) | GI50 (HOP-92) | GI50 (UO-31) | GI50 (SF-268) | GI50 (MDA-MB-435) | GI50 (COLO 205) | GI50 (MDA-N) | GI50 (OVCAR-3) | GI50 (IGROV-1) | GI50 (SK-MEL-5) | GI50 (HT-29) | GI50 (PC-3)
1 | O=C(O)Cn1ccnc1[N+](=O)[O-] | > 100 µM (inactive) | > 100 µM (inactive) | > 100 µM (inactive) | > 100 µM (inactive) | > 100 µM (inactive) | > 100 µM (inactive) | > 100 µM (inactive) | > 100 µM (inactive) | > 100 µM (inactive) | > 100 µM (inactive) | > 100 µM (inactive) | > 100 µM (inactive) | > 100 µM (inactive) | > 100 µM (inactive) | > 100 µM (inactive) | > 100 µM (inactive) | > 100 µM (inactive) | > 100 µM (inactive) | > 100 µM (inactive) | > 100 µM (inactive)
2 | NC(=O)c1cc2ccc(O)cc2o/c1=N/NC(=O)c1ccccc1 | 36.1 µM (inactive) | 42.3 µM (inactive) | > 100 µM (inactive) | 89.9 µM (inactive) | > 100 µM (inactive) | 86.5 µM (inactive) | > 100 µM (inactive) | 62.2 µM (inactive) | 40.2 µM (inactive) | > 100 µM (inactive) | 67 µM (inactive) | > 100 µM (inactive) | 74.3 µM (inactive) | > 100 µM (inactive) | 72.8 µM (inactive) | 80.5 µM (inactive) | 46.7 µM (inactive) | 39.8 µM (inactive) | > 100 µM (inactive) | 83.2 µM (inactive)
3 | COc1cc(N(C)C)c(OC)cc1/C=C\c1ccnc2ccccc12 | 2.12 µM (inactive) | 4.38 µM (inactive) | 4.94 µM (inactive) | 3.86 µM (inactive) | > 10 µM (inactive) | 4.93 µM (inactive) | 2.26 µM (inactive) | 3.39 µM (inactive) | 2.96 µM (inactive) | 2.74 µM (inactive) | > 10 µM (inactive) | 3.63 µM (inactive) | 1.75 µM (inactive) | 3.55 µM (inactive) | 1.71 µM (inactive) | 1.72 µM (inactive) | 0.824 µM (active) | 0.815 µM (active) | 3.1 µM (inactive) | 2.92 µM (inactive)
4 | O=[N+]([O-])/C=C/c1cn(CCCCCn2cc(/C=C/[N+](=O)[O-])c3ccccc32)c2ccccc12 | 1.82 µM (inactive) | 10.4 µM (inactive) | 3.93 µM (inactive) | 4.02 µM (inactive) | 6.73 µM (inactive) | 1.44 µM (inactive) | 11.6 µM (inactive) | 6.95 µM (inactive) | 1.79 µM (inactive) | 19.8 µM (inactive) | 3.64 µM (inactive) | 2.18 µM (inactive) | 0.953 µM (active) | 4.3 µM (inactive) | 0.322 µM (active) | 1.78 µM (inactive) | 2.23 µM (inactive) | 1.75 µM (inactive) | 1.56 µM (inactive) | 3.58 µM (inactive)
5 | c1csc(-c2cc(-c3ccsc3)c(-c3ccsc3)s2)c1 | > 100 µM (inactive) | > 100 µM (inactive) | > 100 µM (inactive) | > 100 µM (inactive) | > 100 µM (inactive) | > 100 µM (inactive) | 8.15 µM (inactive) | > 100 µM (inactive) | > 100 µM (inactive) | > 100 µM (inactive) | > 100 µM (inactive) | > 100 µM (inactive) | > 100 µM (inactive) | 89.7 µM (inactive) | > 100 µM (inactive) | > 100 µM (inactive) | > 100 µM (inactive) | > 100 µM (inactive) | > 100 µM (inactive) | > 100 µM (inactive)
6 | O=C(Sc1c(-c2ccccc2)c(=O)n(-c2ccccc2)c(=S)n1-c1ccccc1)c1ccco1 | > 100 µM (inactive) | > 76.9 µM (inactive) | > 100 µM (inactive) | > 100 µM (inactive) | > 100 µM (inactive) | > 100 µM (inactive) | > 100 µM (inactive) | > 76.4 µM (inactive) | > 100 µM (inactive) | > 52.2 µM (inactive) | > 100 µM (inactive) | > 100 µM (inactive) | > 100 µM (inactive) | > 100 µM (inactive) | > 90.6 µM (inactive) | 99.3 µM (inactive) | > 100 µM (inactive) | 97.9 µM (inactive) | > 100 µM (inactive) | > 100 µM (inactive)
7 | CCOC(CNCCC(=O)OC)OCC | > 10 µM (inactive) | > 10 µM (inactive) | > 10 µM (inactive) | > 10 µM (inactive) | > 10 µM (inactive) | > 10 µM (inactive) | > 10 µM (inactive) | > 10 µM (inactive) | > 10 µM (inactive) | > 10 µM (inactive) | > 10 µM (inactive) | > 10 µM (inactive) | > 10 µM (inactive) | > 10 µM (inactive) | > 10 µM (inactive) | > 10 µM (inactive) | > 10 µM (inactive) | > 10 µM (inactive) | > 10 µM (inactive) | > 10 µM (inactive)
8 | CC[C@H](C)[C@@H]([C@@H](CC(=O)N1CCC[C@H]1[C@H](OC)[C@@H](C)C(=O)NCCc1ccccc1)OC)N(C)C(=O)C(NC(=O)[C@H](C(C)C)N(C)C)C(C)C (stereo not given in full) | 0.000676 µM (active) | 5.83e-05 µM (active) | 0.000235 µM (active) | 0.000314 µM (active) | 0.000395 µM (active) | 0.000203 µM (active) | 0.000964 µM (active) | 0.000275 µM (active) | 0.000211 µM (active) | 0.0069 µM (active) | 0.00103 µM (active) | 0.000658 µM (active) | 3.18e-05 µM (active) | 9.16e-05 µM (active) | 3.46e-05 µM (active) | 4.09e-05 µM (active) | 0.000363 µM (active) | 4.18e-05 µM (active) | 8.89e-05 µM (active) | 0.000119 µM (active)
9 | CCCCON1C[C@@H](O)C(O)[C@@H](O)C1 (stereo not given in full) | > 100 µM (inactive) | > 100 µM (inactive) | > 100 µM (inactive) | > 100 µM (inactive) | > 100 µM (inactive) | > 100 µM (inactive) | > 100 µM (inactive) | > 100 µM (inactive) | > 100 µM (inactive) | > 100 µM (inactive) | > 100 µM (inactive) | > 100 µM (inactive) | > 100 µM (inactive) | > 100 µM (inactive) | > 100 µM (inactive) | > 100 µM (inactive) | > 100 µM (inactive) | > 100 µM (inactive) | > 100 µM (inactive) | > 100 µM (inactive)
10 | CC1(C)CC(=O)C2=C(C1)c1c(ccc3ccccc13)NC2c1cn(Cc2ccc(Cl)cc2)c2ccccc12 (stereo not given) | 27.7 µM (inactive) | 66.8 µM (inactive) | 40.9 µM (inactive) | 80.7 µM (inactive) | 75 µM (inactive) | > 100 µM (inactive) | 30.7 µM (inactive) | > 100 µM (inactive) | 23.9 µM (inactive) | 27.7 µM (inactive) | > 100 µM (inactive) | > 100 µM (inactive) | > 100 µM (inactive) | > 100 µM (inactive) | > 100 µM (inactive) | 18.7 µM (inactive) | 59.2 µM (inactive) | > 100 µM (inactive) | > 100 µM (inactive) | > 100 µM (inactive)
11 | S=C1Cc2cc3ccccc3nc2-c2ccccc2N1 | 24.3 µM (inactive) | 24.9 µM (inactive) | 11.6 µM (inactive) | 23.9 µM (inactive) | > 29.3 µM (inactive) | 26.7 µM (inactive) | 38 µM (inactive) | 8.45 µM (inactive) | 15.1 µM (inactive) | 8.87 µM (inactive) | 9.06 µM (inactive) | 7.01 µM (inactive) | 29.7 µM (inactive) | 54 µM (inactive) | 5.13 µM (inactive) | 9.57 µM (inactive) | 29 µM (inactive) | 44.8 µM (inactive) | > 47.2 µM (inactive) | 36 µM (inactive)
12 | Cn1c(-c2ccc[se]2)ccc1-c1ccc(C=O)[se]1 | 0.124 µM (active) | 16.4 µM (inactive) | 0.385 µM (active) | 12.4 µM (inactive) | > 100 µM (inactive) | > 86.3 µM (inactive) | 48.5 µM (inactive) | 0.205 µM (active) | 0.308 µM (active) | 10.5 µM (inactive) | > 76.4 µM (inactive) | 16.4 µM (inactive) | 11.4 µM (inactive) | 16.3 µM (inactive) | 6.34 µM (inactive) | 0.366 µM (active) | 0.122 µM (active) | 20.7 µM (inactive) | 10.8 µM (inactive) | 56.9 µM (inactive)
13 | O=[N+]([O-])C(=C(\Cl)NCCO)/C(Cl)=C(/Cl)Br | 2.16 µM (inactive) | 1.1 µM (active) | 10.8 µM (inactive) | 2.9 µM (inactive) | 6.7 µM (inactive) | 1.57 µM (inactive) | 4.85 µM (inactive) | 1.75 µM (inactive) | 2.7 µM (inactive) | 1.56 µM (inactive) | 2.79 µM (inactive) | 1.62 µM (inactive) | 1.3 µM (inactive) | 1.38 µM (inactive) | 1.83 µM (inactive) | 1.32 µM (inactive) | 2.77 µM (inactive) | 2.44 µM (inactive) | 1.83 µM (inactive) | 2.62 µM (inactive)
14 | C[C@H](CCC(=O)O)[C@H]1CC[C@H]2[C@@H]3[C@H](O)C[C@@H]4C[C@H](O)CC[C@]4(C)[C@H]3C[C@H](O)[C@]12C | > 100 µM (inactive) | > 100 µM (inactive) | > 100 µM (inactive) | > 100 µM (inactive) | > 100 µM (inactive) | > 100 µM (inactive) | > 100 µM (inactive) | > 100 µM (inactive) | > 100 µM (inactive) | > 100 µM (inactive) | > 100 µM (inactive) | > 100 µM (inactive) | > 100 µM (inactive) | > 100 µM (inactive) | > 100 µM (inactive) | > 100 µM (inactive) | > 100 µM (inactive) | > 100 µM (inactive) | > 100 µM (inactive) | > 100 µM (inactive)
